What is called IC50 is the midpoint of a concentration-inhibition curve.

For one assay, the target named is T1, KDM4C (Homo sapiens, UniProt Q9H3R0).
T1 construct: N-terminal GST-tagged KDM4C^2-372 was purchased from BPS Biosciences; GST (N); purchased BPS Biosciences
T1 sequence (Q9H3R0 2-372): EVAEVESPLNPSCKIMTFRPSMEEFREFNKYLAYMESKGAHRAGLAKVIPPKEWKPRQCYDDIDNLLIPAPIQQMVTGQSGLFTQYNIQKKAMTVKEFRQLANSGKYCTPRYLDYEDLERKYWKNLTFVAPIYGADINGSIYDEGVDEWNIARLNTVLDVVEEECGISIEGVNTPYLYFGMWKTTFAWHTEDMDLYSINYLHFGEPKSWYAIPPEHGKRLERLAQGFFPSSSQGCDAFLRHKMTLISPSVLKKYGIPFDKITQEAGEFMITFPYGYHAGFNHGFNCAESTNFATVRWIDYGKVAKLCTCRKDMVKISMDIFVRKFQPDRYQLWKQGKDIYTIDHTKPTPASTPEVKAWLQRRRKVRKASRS
Put plainly: KDM4C Assay (SAMDI mass spectrometry demethylase assay). The note with it: N-terminal GST-tagged KDM4C 2-372, read-out: 4C IC50. The format is biochemical. In a few lines:
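GST-tagged KDM4C 2-372 (5 nM) preincubated 30 min with compound, then H3K9me3 biotinylated peptide (500 nM) and 2-oxoglutarate (15 μM) added in HEPES pH 8.0 with ascorbate, Fe(II), TCEP; 150 min at 25 °C, formic-acid quench. Conversion by SAMDI mass spectrometry from substrate/product peak AUC; IC50 from dose-response.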

For the next assay, the target named is T2, KDM4A (Homo sapiens, UniProt O75164).
T2 construct: N-terminal His-tagged KDM4A^1-350 was purchased from BPS Biosciences; His (N); purchased BPS Biosciences
T2 sequence (O75164 1-350): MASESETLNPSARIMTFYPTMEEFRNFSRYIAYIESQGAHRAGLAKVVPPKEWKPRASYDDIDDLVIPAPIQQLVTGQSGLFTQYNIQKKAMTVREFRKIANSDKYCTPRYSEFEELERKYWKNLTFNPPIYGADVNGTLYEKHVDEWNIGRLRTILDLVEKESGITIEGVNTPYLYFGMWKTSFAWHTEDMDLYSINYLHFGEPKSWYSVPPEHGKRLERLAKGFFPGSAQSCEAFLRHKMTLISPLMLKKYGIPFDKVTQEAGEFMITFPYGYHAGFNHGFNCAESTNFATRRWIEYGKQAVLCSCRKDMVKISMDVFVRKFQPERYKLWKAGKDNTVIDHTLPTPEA
The assay can be described thus: KDM4A Assay (SAMDI mass spectrometry demethylase assay). Format: biochemical. The note with it: N-terminal His-tagged KDM4A 1-350, read-out: 4A IC50. In a few lines: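 His-tagged KDM4A 1-350 (5 nM final) was preincubated 30 min with compound (10 μM final for screening) in 50 mM HEPES pH 8.0 with ascorbate, 10 μM Fe(II) and TCEP. Biotinylated Kme2 peptide (600 nM) and 2-oxoglutarate (5 μM) reacted 120 min at 25°C before a formic acid stop. SAMDI-MS % conversion from substrate and product peak areas; IC50 from dose-response.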

Read-outs that look alike come from different tables or passages of the source.

`Cn1ncc(-c2cccnc2)c1Nc1cnccc1C(=O)O` [Compound 4]: the IC50 at KDM4C (class symbols) and on KDM4A (class symbols) was 1000 to 10000 nM in each case.

`Cn1nc(Nc2cnccc2C(=O)O)cc1-c1ccccc1` [Compound 5]: the IC50 at KDM4C (class symbols) and at KDM4A (class symbols) was 100 to 1000 nM in each case.

For the molecule `Cc1nn([C@H]2CC[C@@H](N)CC2)cc1Nc1cnccc1C(=O)O` [Compound 80, 3-((1-((cis)-4-aminocyclohexyl)-3-methyl-1H-pyrazol-4-yl)amino)isonicotinic acid], the IC50 at KDM4C (class symbols) and at KDM4A (class symbols) was 100 to 1000 nM each time.

As for `CCc1c(Nc2cnccc2C(=O)O)cnn1-c1ccccc1` [Compound 81, 3-((5-ethyl-1-phenyl-1H-pyrazol-4-yl)amino)isonicotinic acid], the IC50 on KDM4C (class symbols) and at KDM4A (class symbols) was 1 to 100 nM each time.

Turning to `Cc1ccc(-n2cc(Nc3cnccc3C(=O)O)c(C)n2)cc1` [Compound 82], the IC50 on KDM4C (class symbols) and at KDM4A (class symbols) was 1 to 100 nM in each case.

For the molecule `NC1CCC(n2nc(-c3cccc(Cl)c3)cc2Nc2cnccc2C(=O)O)CC1` (stereo not shown) [Compound 85, 3-((1-(4-aminocyclohexyl)-3-(3-chlorophenyl)-1H-pyrazol-5-yl)amino)isonicotinic acid], the IC50 on KDM4C (class symbols) and at KDM4A (class symbols) was 1000 to 10000 nM in each case.

Consider `O=C(O)c1ccncc1Nc1cc(-c2cccc(Cl)c2)n(C2CCC3(CC2)OCCO3)n1` [Compound 86, 3-((5-(3-chlorophenyl)-1-(1,4-dioxaspiro[4.5]decan-8-yl)-1H-pyrazol-3-yl)amino)isonicotinic acid], for which the values for the IC50 at KDM4C (class symbols) and at KDM4A (class symbols) were 1000 to 10000 nM and 100 to 1000 nM, respectively.

Consider `NC1CCC(n2nc(Nc3cnccc3C(=O)O)cc2-c2cccc(Cl)c2)CC1` (stereo not shown) [Compound 87, 3-((1-(4-aminocyclohexyl)-5-(3-chlorophenyl)-1H-pyrazol-3-yl)amino)isonicotinic acid], for which the IC50 on KDM4C (class symbols) and on KDM4A (class symbols) was 10000 to 100000 nM each time.

As for `O=C(O)c1ccncc1Nc1nn(-c2ccccc2)cc1-c1ccncc1` [Compound 88, 3-((1-phenyl-4-(pyridin-4-yl)-1H-pyrazol-3-yl)amino) isonicotinic acid], the IC50 at KDM4C (class symbols) was in the range of 1 to 100 nM; at KDM4A (class symbols), 100 to 1000 nM.

Turning to `Cc1nn(C2CCN(CC3CC3)CC2)cc1Nc1cnccc1C(=O)O` [Compound 89, 3-(1-(1-(cyclopropylmethyl)piperidin-4-yl)-3-methyl-1H-pyrazol-4-ylamino)isonicotinic acid], the IC50 was in the range of 100 to 1000 nM on KDM4C (class symbols) and 1 to 100 nM at KDM4A (class symbols).

As to `Cc1c(Nc2cnccc2C(=O)O)cnn1C1CCN(CC2CC2)CC1` [Compound 90, 3-(1-(1-(cyclopropylmethyl)piperidin-4-yl)-5-methyl-1H-pyrazol-4-ylamino) isonicotinic acid], the IC50 at KDM4C (class symbols) and at KDM4A (class symbols) was 100 to 1000 nM each time.

Take `Cc1nn(C2CCN(C3CN(C)C3)CC2)cc1Nc1cnccc1C(=O)O` [Compound 91, 3-(3-methyl-1-(1-(1-methylazetidin-3-yl)piperidin-4-yl)-1H-pyrazol-4-ylamino)isonicotinic acid]: the IC50 at KDM4C (class symbols) lay within 1000 to 10000 nM; at KDM4A (class symbols), 100 to 1000 nM.

For `Cc1c(Nc2cnccc2C(=O)O)cnn1C1CCN(C2CN(C)C2)CC1` [Compound 92, 3-(5-methyl-1-(1-(1-methylazetidin-3-yl)piperidin-4-yl)-1H-pyrazol-4-ylamino)isonicotinic acid], the IC50 on KDM4C (class symbols) and at KDM4A (class symbols) was 100 to 1000 nM each time.

As to `COC(=O)c1ccncc1Nc1cn(C2CCN(C3CCC3)CC2)nc1C` [Compound 93, methyl 3-((1-(1-cyclobutylpiperidin-4-yl)-3-methyl-1H-pyrazol-4-yl)amino)isonicotinate], the IC50 at KDM4C (numeric bound) is greater than 100000 nM; at KDM4A (class symbols), 10000 to 100000 nM.

For `Cc1nn(C2CCN(C3CCC3)CC2)cc1Nc1cnccc1C(=O)O` [Compound 94, 3-(1-(1-cyclobutylpiperidin-4-yl)-3-methyl-1H-pyrazol-4-ylamino)isonicotinic acid], the IC50 was in the range of 100 to 1000 nM at KDM4C (class symbols) and 1 to 100 nM on KDM4A (class symbols).

With `COC(=O)c1ccncc1Nc1cnn(C2CCN(C3CCC3)CC2)c1C` [Compound 95, methyl 3-((1-(1-cyclobutylpiperidin-4-yl)-5-methyl-1H-pyrazol-4-yl)amino)isonicotinate], the IC50 at KDM4C (class symbols) and at KDM4A (class symbols) was 10000 to 100000 nM each time.

`CN1CCC(n2ncc(Nc3cnccc3C(=O)O)c2-c2ccccc2)CC1` [Compound 126, 3-(1-(1-methylpiperidin-4-yl)-5-phenyl-1H-pyrazol-4-ylamino) isonicotinic acid]: the values for the IC50 at KDM4C (class symbols) and on KDM4A (numeric value) were 1000 to 10000 nM and 1490 nM, respectively.

Source of the values: US20170291890A1 (Epizyme, Inc., priority 2014, published 2017).
